Active and inactive are the calls of the source. How the calls were made is not given here.
Assays:
[1] = Cytotoxicity against human MT4 cells after 96 hrs by MTT method; assay type: cell-based
[2] = system: Human immunodeficiency virus 1; assay: Antiviral activity against HIV1; assay type: functional, organism-based
[3] = system: Vesicular stomatitis virus; assay: Antiviral activity against vesicular stomatitis virus; assay type: functional, organism-based
[4] = system: Poliovirus 1; assay: Antiviral activity against Human poliovirus 1 Sabin; assay type: functional
[5] = system: Respiratory syncytial virus; assay: Antiviral activity against RSV A2 in VERO76 cells assessed as reduction of plaque number by MTT method; assay type: functional, organism-based; details: human respiratory syncytial virus, A2, Vero 76
[6] = system: Yellow fever virus; assay: Antiviral activity against YFV in BHK cells assessed as protection from virus-induced cytopathogenicity by MTT method; assay type: functional, organism-based
[7] = system: Vaccinia virus; assay: Antiviral activity against vaccinia virus; assay type: functional, organism-based; details: Orthopoxvirus vaccinia
[8] = system: Bovine viral diarrhea virus 1; assay: Antiviral activity against BVDV NADL in MDBK cells assessed as protection from virus-induced cytopathogenicity by MTT method; assay type: functional, organism-based; details: Bovine viral diarrhea virus isolates and strains
[9] = system: Reovirus sp.; assay: Antiviral activity against Reovirus; assay type: functional, organism-based

Row | SMILES | CC50 at 96 h [1] [µM] | Activity [2] | Activity [3] | Activity [4] | EC50 [5] [µM] | EC50 [6] [µM] | Activity [7] | EC50 [8] [µM] | Activity [9]
1 | Cc1cc(=O)oc2c(CN3CCN(Cc4ccc5c(c4)OCO5)CC3)c(O)ccc12 | 72 | inactive | inactive | inactive | > 100 | > 100 | inactive | 75 | inactive
2 | Cc1cc(=O)oc2c(CN3CCN(C)CC3)c(OC(=O)c3ccccc3)ccc12 | > 100 | inactive | inactive | inactive | > 100 | > 100 | inactive | > 100 | inactive
3 | O=c1cnn([C@@H]2O[C@H](CO)[C@@H](O)[C@H]2O)c(=O)[nH]1 [6-AZAURIDINE] | 0.2 | inactive | inactive | inactive | 1 | 25 | inactive | > 25 | inactive
4 | CC(=O)Oc1ccc2c(C)cc(=O)oc2c1Cc1c[nH]c2ccccc12 | 100 | inactive | inactive | inactive | > 100 | > 81 | inactive | ≥ 100 | inactive
5 | CCCOc1ccc2c(C)cc(=O)oc2c1CN1CCN(C/C=C/c2ccccc2)CC1 | > 100 | inactive | inactive | inactive | > 100 | > 53 | inactive | 27 | inactive
6 | CC(=O)Oc1ccc2c(C)cc(=O)oc2c1Cc1c(C)n(C)c2ccccc12 | 24 | inactive | inactive | inactive | 26 | > 58 | inactive | > 40 | inactive
7 | COc1ccc2c(=O)c(Cc3c(O)ccc4c(C)cc(=O)oc34)c(N3CCCC3)oc2c1 | > 100 | inactive | inactive | inactive | > 100 | > 100 | inactive | > 100 | inactive
8 | Cc1cc(=O)oc2c(CN3CCc4ccccc4C3)c(OC(=O)c3ccccc3)ccc12 | > 100 | inactive | inactive | inactive | 18 | > 100 | inactive | > 100 | inactive
9 | CN(CC(=O)O)Cc1c(O)ccc2ccc(=O)oc12 | > 100 | inactive | inactive | inactive | > 100 | > 100 | inactive | > 100 | inactive
10 | CCN(CC)c1oc2cc(OC)ccc2c(=O)c1Cc1c(OC(C)=O)ccc2ccc(=O)oc12 | 83 | inactive | inactive | inactive | 20 | > 100 | inactive | > 100 | inactive
11 | Cc1cc(=O)oc2c(CN3CCc4ccccc4C3)c(O)ccc12 | > 100 | inactive | inactive | inactive | > 100 | > 100 | inactive | > 100 | inactive
12 | CCN(CC)c1oc2ccc3ccccc3c2c(=O)c1Cc1c(OC(C)=O)ccc2ccc(=O)oc12 | > 100 | inactive | inactive | inactive | > 100 | > 100 | inactive | > 100 | inactive
13 | CCCCCCCCOc1ccc2c(=O)c(Cc3c(OC(C)=O)ccc4c(C)cc(=O)oc34)c(N(CC)CC)oc2c1 | > 100 | inactive | inactive | inactive | > 100 | > 100 | inactive | > 100 | inactive
14 | CCC(=O)Oc1ccc2ccc(=O)oc2c1Cc1c(-c2ccccc2)[nH]c2ccccc12 | > 100 | inactive | inactive | inactive | > 100 | > 82 | inactive | > 100 | inactive
15 | CCCOc1ccc2ccc(=O)oc2c1CN1CCc2ccccc2C1 | 11 | inactive | inactive | inactive | > 25 | > 19 | inactive | – | inactive
16 | CCCOc1ccc2ccc(=O)oc2c1CN1CCN(C/C=C/c2ccccc2)CC1 | 16 | inactive | inactive | inactive | > 100 | > 48 | inactive | 15 | inactive
17 | O=c1ccc2ccc(O)c(CN3CCc4ccccc4C3)c2o1 | > 100 | inactive | inactive | inactive | > 100 | > 100 | inactive | > 100 | inactive
18 | COc1ccc2c(=O)c(Cc3c(O)ccc4ccc(=O)oc34)c(N3CCCC3)oc2c1 | > 100 | inactive | inactive | inactive | > 100 | > 100 | inactive | > 100 | inactive
19 | Cc1[nH]c2ccccc2c1Cc1c(OC(=O)CCCC(=O)O)ccc2ccc(=O)oc12 | 27 | inactive | inactive | inactive | > 92 | > 100 | inactive | > 67 | inactive
20 | CC(=O)Oc1ccc2c(C)cc(=O)oc2c1Cc1c(-c2ccccc2)[nH]c2ccccc12 | > 100 | inactive | inactive | inactive | > 100 | > 100 | inactive | > 100 | inactive
21 | Cc1cc(=O)oc2c(CN3CCOCC3)c(O)ccc12 | > 100 | inactive | inactive | inactive | > 100 | > 100 | inactive | > 100 | inactive
22 | CCC(=O)Oc1ccc2ccc(=O)oc2c1Cc1c[nH]c2ccccc12 | 65 | inactive | inactive | inactive | > 54 | > 52 | inactive | ≥ 55 | inactive
23 | CC(=O)c1ccc(N2CCN(Cc3c(O)ccc4ccc(=O)oc34)CC2)cc1 | 18 | inactive | inactive | inactive | > 100 | > 100 | inactive | > 100 | inactive
24 | CCCOc1ccc2c(C)cc(=O)oc2c1CN1CCCCC1 | > 100 | inactive | inactive | inactive | > 100 | > 100 | inactive | 38 | inactive
25 | COc1ccc2c(=O)c(Cc3c(OC(C)=O)ccc4ccc(=O)oc34)c(N(C)C)oc2c1 | 26 | inactive | inactive | inactive | > 25 | > 100 | inactive | > 51 | inactive
26 | Cc1cc(=O)oc2c(CN3CCCCC3)c(O)ccc12 | > 100 | inactive | inactive | inactive | > 100 | > 100 | inactive | > 100 | inactive
27 | CC(=O)Oc1ccc2c(C)cc(=O)oc2c1Cc1c(C)[nH]c2ccccc12 | 41 | inactive | inactive | inactive | 25 | > 100 | inactive | > 100 | inactive
28 | CCCOc1ccc2c(C)cc(=O)oc2c1CN1CCOCC1 | > 100 | inactive | inactive | inactive | > 100 | > 100 | inactive | > 100 | inactive
29 | O=C(Oc1ccc2ccc(=O)oc2c1CN1CCN(Cc2ccc3c(c2)OCO3)CC1)c1ccccc1 | 74 | inactive | inactive | inactive | 85 | > 100 | inactive | 77 | inactive

Source: ChEMBL document CHEMBL1144007, “Activity of Mannich bases of 7-hydroxycoumarin against Flaviviridae” (Bioorg Med Chem, 2008)
